Like-named read-outs stand apart in the source and are kept apart here.

The test system of series [1] is rat tracheal smooth muscle pre-contracted by high K+ solution. As to the kind of experiment: Relaxation of isolated rat tracheal strips pre-contracted by high K+ solution, with or without ICI 118551. It counts as cell-based. The note with it: 0.1 μM to 1.0 mM, high K+ (60 mM) pre-contracted. On the procedure:
The potential β2-AR-mediating relaxant mechanisms of the compound were also evaluated in the absence and presence of a specific inhibitor. This was performed with the scarification of rats weighing 250–300 g by exsanguination from the abdominal aorta. We collected the tracheal tissues between the larynx and the lungs and immediately immersed them in cold oxygenated Krebs solution (118 mM NaCl, 4.8 mM KCl, 2.5 mM CaCl2, 1.2 mM MgSO4, 25 mM NaHCO3, 1.2 mM KH2PO4, and 9.8 mM glucose; pH 7.4). After the removal of adhesive tissues, we spirally isolated the tracheal segment with three cartilage rings to assay the tracheal strip reactivity. Such strips were mounted onto two L-shaped stainless-steel holders connected with a force–displacement transducer. The isometric tension was determined in a tissue bath by a PowerLab data acquisition system.
We aerated the pre-warmed Krebs solution (37°C) with a gas mixture of 95% O2 and 5% CO2. At initial tests, the tracheal strips with tensions of 1.0-g mass were equilibrated for 60 min. The resulting strips were stimulated with high-potassium (K^+) solution (63 mM NaCl, 60 mM KCl, 2.5 mM CaCl2, 1.2 mM MgSO4, 25 mM NaHCO3, 1.2 mM KH2PO4, and 9.8 mM glucose; pH 7.4) to evoke a contractile response in the presence or absence of ICI 118551 (10 μM). […]

For series [2] the following is noted: dose 200 mg/kg, ref Qin et al. (2006); cited from earlier work.
The next series has as its system mice trachea. More on the design: method as in Liu et al., 2007. Particulars: ref Liu et al., 2007; cited from earlier work.
The target of another series is immobilized β2-AR (Homo sapiens, UniProt P07550).
Chain of immobilized β2-AR (P07550 whole entry): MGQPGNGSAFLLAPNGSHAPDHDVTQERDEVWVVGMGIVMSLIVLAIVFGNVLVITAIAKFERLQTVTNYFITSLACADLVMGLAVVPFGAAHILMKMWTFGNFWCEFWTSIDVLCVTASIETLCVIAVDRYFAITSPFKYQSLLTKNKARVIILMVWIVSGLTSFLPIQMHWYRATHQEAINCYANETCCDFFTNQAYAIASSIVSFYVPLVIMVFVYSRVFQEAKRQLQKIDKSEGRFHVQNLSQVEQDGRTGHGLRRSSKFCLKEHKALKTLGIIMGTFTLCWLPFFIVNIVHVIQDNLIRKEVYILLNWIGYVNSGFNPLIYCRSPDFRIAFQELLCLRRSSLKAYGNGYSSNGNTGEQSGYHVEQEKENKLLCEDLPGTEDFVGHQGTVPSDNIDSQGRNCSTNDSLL
The next series concerns cough of mice. Particulars: ref Liu et al., 2007; cited from earlier work.
A short description of series [3]: Stability of mogroside V in rat plasma (QC samples, HPLC-MS/MS). The note with it: for Short term Stability (%): room temperature 14 h; for Long term Stability (%): −20°C 1 month; for Freeze–thaw Stability (%): three freeze (−20°C) and thaw cycles. It counts as in vitro ADME. On the procedure:
The stability of mogroside V in plasma was evaluated at three QC levels in six replicates under varieties of storing and processing conditions. The results of the peak area of QC samples were compared with those from freshly prepared standard samples. The QC samples with recoveries of 85–115% were defined as having good stability under the desired conditions. Short-term stability was assessed after QC samples were saved at room temperature for 14 h. Subsequently, freeze–thaw stability was assessed after three freeze (−20°C) and thaw (room temperature) cycles of QC samples. Long-term stability was examined after QC samples were saved at −20°C for 1 month.

The conditions of series [4]: cited from earlier work.
In a further series the test system is ileum and trachea. More on the design: method as in Liu et al., 2007. The note with it: histamine-induced; ref Liu et al., 2007; cited from earlier work.
A short description of series [5]: Pharmacokinetic study in rats after oral administration (HPLC-MS/MS). It counts as in vivo, Sprague–Dawley (SD) rats. Particulars: mogroside V 200 mg/kg or LHG extract 12.5 ml/kg. The method, then: Male Sprague–Dawley (SD) rats (240 ± 20 g) were purchased from the Experimental Animal Center of Xi’an Jiaotong University (Xi’an, China). The animals were maintained in a room under controlled temperature (24 ± 1°C) and humidity (50–70%) with 12-h light/dark cycle. The rats were fed with standard laboratory food and acclimatized to the environment for a week before the experiment. All animals were treated in accordance with the Guide for the Care and Use of Laboratory Animals under the approval of the Animal Experimentation Ethics Committee at Northwest University.
All the plasma samples were analyzed on an Inertsil ODS-3-C18 column (5 μm, 4.6 mm × 150 mm). The mobile phase for quantitative determination of mogroside V in rat plasma consisted of 29% acetonitrile/0.2% (v/v) formic acid at a flow rate of 0.6 ml/min. The injection volume was 20 μl under a detection wavelength of 203 nm.
The optimized mass conditions include the following: capillary voltage of 3,500 V, drying gas of 8 L/min at 350°C, nebulizer pressure of 40 psi at 350°C, and ion scan range of 100–2,000 amu. Under these conditions, multi-reaction monitoring (MRM) mode was carried out to specifically and sensitively detect the mogroside V. The mass transitions were m/z 1,285.6 → 1,123.6 for mogroside V and m/z 931.3 → 637.5 for IS (notoginsenoside R1).
An aliquot of 10 μl of IS working solution was added into an aliquot of 90 μl of plasma samples. Vortexing the mixture for 2.0 min, we centrifuged the plasma for 10 min with a speed of 12,000 rpm at a temperature of 4°C. The supernatant was collected and transferred to another 0.5-ml centrifuge tube and then blow dried with nitrogen. We applied 200 μl of methanol to redissolve it, which was used for analysis.
Eighteen rats were randomly divided into three groups of six for each group, including blank control, mogroside V, and LHG groups. The blank group was orally administered with normal saline. The other two groups were administered with mogroside V at a dose of 200 mg/kg and LHG aqueous extraction at a dose of 12.5 ml/kg (equivalent to 200 mg/kg mogroside V). Blood samples were collected in heparin sodium vacutainers at post-dose 5, 15, 30, 45, 60, 90, 120, 240, 360, 480, and 720 min. The plasma was pre-treated by centrifugation and frozen at −80°C until further analysis. The pharmacokinetic parameters including the area under curve (AUC0–720, and AUC0–∞), the maximum plasma concentration (Cmax), the time to achieve maximum plasma concentration (T max), and the elimination half-life (t 1/2z) were calculated by Drug and Statistics 3.0.0 software (DAS, T. C. M., Shanghai, China). All data were recorded as the mean ± standard deviation (SD), and the 95% confidence interval was also estimated when necessary.

Setting [6] is: male, Sprague-Dawley, rat, in vivo, mogroside V in plasma.

`C[C@H](CC[C@@H](O[C@@H]1O[C@H](CO[C@@H]2O[C@H](CO)[C@@H](O)[C@H](O)[C@H]2O)[C@@H](O)[C@H](O)[C@H]1O[C@@H]1O[C@H](CO)[C@@H](O)[C@H](O)[C@H]1O)C(C)(C)O)[C@H]1CC[C@@]2(C)[C@@H]3CC=C4[C@@H](CC[C@H](O[C@@H]5O[C@H](CO[C@@H]6O[C@H](CO)[C@@H](O)[C@H](O)[C@H]6O)[C@@H](O)[C@H](O)[C@H]5O)C4(C)C)[C@]3(C)[C@H](O)C[C@]12C` [Mogroside V]: in series [1] (absence of ICI 118551), the “relaxation of tracheal strips” value is reported as “concentration-dependent manner”. For the same molecule, the “relaxation of tracheal strips” value in series [1] (presence of ICI 118551 (10 μM)) was “disappeared”. Also, in [2], the “toxicity after oral administration” value is recorded as “nontoxic”. In addition, the “phenol red excretion of mice trachea” value in the series with mice trachea is “effective for extending”. Besides, the “retention time of LHG extract peak on immobilized β2-AR column, identified as mogroside V” value on immobilized β2-AR (ammonium acetate buffer (5 mM, pH = 7.4), 0.2 ml/min, 203 nm, void time 0.7 min) stood at 4.3 min. In addition, in the series on cough of mice, the “cough times of mice” value is on record as “reducing the cough times” and the “incubation period for cough of mice” value is on record as “prolonged”. For the same molecule, in series [3] (rat plasma, 30 ng/ml added), the “Short term Stability (%)” value turned out to be 94.8% and the “Long term Stability (%)” value amounted to 94.4%. Further, in series [3] (rat plasma, 500 ng/ml added), the “Short term Stability (%)” value is 94.8%, the “Freeze–thaw Stability (%)” value came to 95.4% and the “Long term Stability (%)” value worked out at 93.8%. In series [3] (rat plasma, 5,000 ng/ml added), the “Short term Stability (%)” value came to 93.2%, the “Freeze–thaw Stability (%)” value stood at 96.6% and the “Long term Stability (%)” value was found to be 92.2%. Moreover, the “detection in rat plasma” value in series [4] (oral administration, dose increased to 5 mg/kg, ref Luo, 2017) was “disappears”. The “detection in rat plasma” value in [4] (tail intravenous injection (1.12 or 2.0 mg/kg) and intraperitoneal administration (1.12 mg/kg), ref Zhou et al., 2018) was “detectable”. In the series with ileum and trachea, the “spasmodic contraction of the ileum and trachea caused by histamine” value is given as “obvious capability to antagonize”. For the same molecule, in series [5] (setting [6]), the Cmax (in general, the peak of the concentration-time curve) is 1330 ng/mL and the Tmax (in general, the time from dosing to the highest level) is 45 min. The half-life in [5] (male, Sprague-Dawley, rat, in vivo, mogroside V in plasma, read-out: t1/2z) stood at 138 ± 13.2 min. Also, the peak plasma concentration in series [5] is listed as 1,330.6 ± 132.2 ng/ml.

As for `O=N[O-].[Na+]` [sodium nitrite, Sodium nitrite], the “retention time on immobilized β2-AR column” value at immobilized β2-AR stood at 0.7 min.

For `COc1cc2nc(N3CCN(C(=O)C4CCCO4)CC3)nc(N)c2cc1OC` (stereo not drawn) [terazosin], the “retention time on immobilized β2-AR column” value at immobilized β2-AR (mobile phase ammonium acetate (5 mM, pH = 7.4), each injected three times) was found to be 1.0 min.

The values above are taken from publication PMC6707405, “Screening Bioactive Compounds of Siraitia grosvenorii by Immobilized β2-Adrenergic Receptor Chromatography and Druggability Evaluation” (Frontiers in Pharmacology, 2019).
